Patent US9849129B2, “Sodium channel blockers for skin disorders” (PARION SCIENCES, INC., priority 2015, dated 2017)

Experiments:
[1] = test system: Bronchial cells; experiment: Apical disappearance assay (epithelial absorption); format: in vitro ADME; settings: for Epithelial Uptake Rate: apical surface, initial concentration 10 μM
Description: Bronchial cells (dog, human, sheep, or rodent cells) are seeded at a density of 0.25×10^6/cm^2 on a porous Transwell-Col collagen-coated membrane with a growth area of 1.13 cm^2 grown at an air-liquid interface in hormonally defined media that promotes a polarized epithelium. From 12 to 20 days after development of an air-liquid interface (ALI) the cultures are expected to be >90% ciliated, and mucins will accumulate on the cells. To ensure the integrity of primary airway epithelial cell preparations, the transepithelial resistance (Rt) and transepithelial potential differences (PD), which are indicators of the integrity of polarized nature of the culture, are measured. Human cell systems are preferred for studies of rates of absorption from apical surfaces. […] A series of samples (5 μl volume per sample) is collected at various time points, including 0, 5, 20, 40, 90 and 240 minutes. Concentrations are determined by measuring intrinsic fluorescence of each sodium channel blocker using a Fluorocount Microplate Flourometer or HPLC. Quantitative analysis employs a standard curve generated from authentic reference standard materials of known concentration and purity. Data analysis of the rate of disappearance is performed using nonlinear regression, one phase exponential decay (Prism V 3.0).

[2] = target: T1, airway epithelial sodium currents (epithelial sodium channel, ENaC) (UniProt A0A8I3MKE6+A0A8I3Q679+Q95165); experiment: Sodium channel blocking activity: short circuit current (ISC) in airway epithelial monolayers in Ussing chambers; settings: for IC50: read-out: Potency of Sodium Channel Blockade (IC50), lumenal addition, airway epithelial monolayers (human, dog, sheep or rodent cells, not specified)
T1 sequence (A0A8I3MKE6 1-646): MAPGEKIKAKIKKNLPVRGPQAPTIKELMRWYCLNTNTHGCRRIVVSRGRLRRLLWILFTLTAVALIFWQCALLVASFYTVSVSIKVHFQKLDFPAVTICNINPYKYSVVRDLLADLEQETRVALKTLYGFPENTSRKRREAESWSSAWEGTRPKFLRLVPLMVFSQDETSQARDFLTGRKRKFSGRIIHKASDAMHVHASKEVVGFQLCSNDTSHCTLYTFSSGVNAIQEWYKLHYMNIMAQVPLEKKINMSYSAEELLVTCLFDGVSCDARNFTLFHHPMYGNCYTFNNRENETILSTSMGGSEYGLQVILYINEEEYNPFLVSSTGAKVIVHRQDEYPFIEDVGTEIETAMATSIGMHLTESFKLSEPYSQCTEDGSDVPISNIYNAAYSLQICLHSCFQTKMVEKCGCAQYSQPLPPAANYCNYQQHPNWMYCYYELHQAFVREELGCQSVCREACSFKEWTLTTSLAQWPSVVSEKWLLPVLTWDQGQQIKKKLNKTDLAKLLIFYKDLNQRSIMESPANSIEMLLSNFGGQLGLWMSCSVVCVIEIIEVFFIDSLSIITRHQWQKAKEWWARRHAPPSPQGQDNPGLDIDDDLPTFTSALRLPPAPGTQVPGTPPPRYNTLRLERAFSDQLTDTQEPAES
T1 sequence (A0A8I3Q679 1-649): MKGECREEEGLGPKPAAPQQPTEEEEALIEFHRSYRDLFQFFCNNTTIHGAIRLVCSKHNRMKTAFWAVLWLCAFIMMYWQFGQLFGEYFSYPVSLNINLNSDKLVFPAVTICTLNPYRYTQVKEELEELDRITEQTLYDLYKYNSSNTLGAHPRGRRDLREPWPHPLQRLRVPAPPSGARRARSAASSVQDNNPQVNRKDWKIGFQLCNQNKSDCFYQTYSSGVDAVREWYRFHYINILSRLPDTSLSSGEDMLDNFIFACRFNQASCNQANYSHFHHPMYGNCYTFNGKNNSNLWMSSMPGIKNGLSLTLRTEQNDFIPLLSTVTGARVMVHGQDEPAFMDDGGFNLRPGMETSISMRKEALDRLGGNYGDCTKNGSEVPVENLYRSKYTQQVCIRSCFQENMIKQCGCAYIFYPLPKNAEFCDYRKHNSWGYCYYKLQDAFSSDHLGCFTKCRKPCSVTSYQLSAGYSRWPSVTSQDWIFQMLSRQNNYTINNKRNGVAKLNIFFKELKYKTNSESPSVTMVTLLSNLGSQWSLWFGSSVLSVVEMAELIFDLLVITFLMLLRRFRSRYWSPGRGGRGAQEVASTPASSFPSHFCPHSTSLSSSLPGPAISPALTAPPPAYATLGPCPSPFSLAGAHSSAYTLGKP
T1 sequence (Q95165 1-641): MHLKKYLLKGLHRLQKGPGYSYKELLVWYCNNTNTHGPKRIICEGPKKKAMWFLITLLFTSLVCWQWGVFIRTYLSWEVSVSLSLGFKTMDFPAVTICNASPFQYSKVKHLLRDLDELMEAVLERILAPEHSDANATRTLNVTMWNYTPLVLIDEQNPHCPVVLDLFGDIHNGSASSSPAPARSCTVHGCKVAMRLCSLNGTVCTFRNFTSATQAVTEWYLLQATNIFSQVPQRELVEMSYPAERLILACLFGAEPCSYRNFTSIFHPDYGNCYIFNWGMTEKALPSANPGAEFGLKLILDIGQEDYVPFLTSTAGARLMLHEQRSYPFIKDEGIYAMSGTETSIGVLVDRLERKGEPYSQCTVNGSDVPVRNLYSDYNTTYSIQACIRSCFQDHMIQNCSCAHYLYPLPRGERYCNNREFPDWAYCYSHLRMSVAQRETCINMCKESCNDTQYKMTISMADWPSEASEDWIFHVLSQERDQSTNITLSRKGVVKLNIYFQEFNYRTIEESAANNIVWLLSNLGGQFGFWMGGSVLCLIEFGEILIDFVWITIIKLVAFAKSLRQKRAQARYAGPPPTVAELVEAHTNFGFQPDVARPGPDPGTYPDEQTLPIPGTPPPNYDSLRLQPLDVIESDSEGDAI
Description: One assay used to assess mechanism of action and/or potency of the compounds of the present invention involves the determination of lumenal drug inhibition of airway epithelial sodium currents measured under short circuit current (ISC) using airway epithelial monolayers mounted in Ussing chambers. Cells obtained from freshly excised human, dog, sheep or rodent airways are seeded onto porous 0.4 micron Snapwell™ Inserts (CoStar), cultured at air-liquid interface (ALI) conditions in hormonally defined media, and assayed for sodium transport activity (ISC) while bathed in Krebs Bicarbonate Ringer (KBR) in Ussing chambers. […] All drugs are prepared in dimethyl sulfoxide as stock solutions at a concentration of 1×10^−2 M and stored at 20° C. […] After the maximal concentration (5×10^−5 M) is administered, the lumenal bath is exchanged three times with fresh, drug-free KBR solution, and the resultant ISC measured after each wash for approximately 5 minutes in duration. Reversibility is defined as the percent return to the baseline value for sodium current after the third wash. All data from the voltage clamps are collected via a computer interface and analyzed off-line.
Dose-effect relationships for all compounds are considered and analyzed by the Prism 3.0 program.

[3] = test system: mouse corneas; experiment: Confocal microscopy of drug penetration in mouse corneas; settings: one hour after application to corneal epithelium, 37° C. (FIG. 2)
Description: Corneal cells were labeled using calcein-AM dye by incubating with corneas for 45 minutes at 37° C. in DMEM media. […] Serial x-y images were obtained one hour post-drug addition by confocal microscopy. […] Pharmacological Effects and Mechanism of Action of the Drug in Animals

[4] = test system: primary human airway epithelial cells; experiment: Confocal microscopy assay of amiloride congener uptake, airway epithelial cells; format: cell-based; settings: 10 uM apical, 60 minute incubation (FIG. 1)
Description: FIG. 1. […] Benzamil or Compound 2 (10 uM each) were added to the apical compartment of primary human airway epithelial cells. After a 60 minute incubation, the compounds were visualized by confocal microscopy.
Virtually all amiloride-like molecules fluoresce in the ultraviolet range. This property of these molecules may be used to directly measure cellular update using x-z confocal microscopy. […] Serial x-z images are obtained with time and the magnitude of fluorescence accumulating in the cellular compartment is quantitated and plotted as a change in fluorescence versus time.
Primary HBE cells were placed in an apparatus designed to position transwell membrane supports on a confocal microscope stage (Leica, Wetzlar, Germany). The glycocalyx and cilia were labeled with 3 μM wheat germ agglutinin-fluorescein (Molecular Probes, Eugene, Oreg.) for 45 mm at 37° C. to visualize the apical domain of HBE cell cultures. The autofluorescence of the cells was acquired prior to apical compound addition. Images were acquired with a 63× water immersion lens in the x-z plane. Benzamil was added to the mucosal compartment (10 μM; 350 μl), and images were recorded serially from 0 to 5 mm.

| SMILES | Epithelial Uptake Rate [1] [nM/cm^2/min] | Fold Decrease in Apical Absorption (Relative to Amiloride) [1] | IC50 [2] [nM] | Fold Increase in Potency (Relative to Amiloride) [2] | Corneal penetration seen by confocal microscopy [3] | Cellular penetration/uptake seen by confocal microscopy [4] | Cellular penetration/uptake seen by confocal microscopy ([4]; listed as benzamil) |
| --- | --- | --- | --- | --- | --- | --- | --- |
| NC(=Nc1ccccc1)NC(=O)c1nc(Cl)c(N)nc1N [Phenamil, reference compound] | 9.0 | 0.2 | 116 | 6.5 | – | – | – |
| N=C(N)NC(=O)c1nc(Cl)c(N)nc1N [Amiloride, reference compound] | 2 | – | – | – | can fully penetrate the cornea | – | – |
| N=C(N)NCCCC[C@@H](N)C(=O)NCCCN(CCCNC(=O)[C@H](N)CCCCNC(=N)N)CCOc1ccc(CCCCNC(=N)NC(=O)c2nc(Cl)c(N)nc2N)cc1 [Compound 3] | – | – | 3.2 | 244 | remains associated with the apical (epithelial) surface | – | – |
| NC(=NCc1ccccc1)NC(=O)c1nc(Cl)c(N)nc1N [Benzamil] | 6.6 | 0.3 | 46 | – | – | largely concentrated inside cells | rapidly taken up by the cells |
| N=C(NCCCCc1ccc(OCCN(CCCc2cccc3ccccc23)C[C@H](O)[C@@H](O)[C@H](O)[C@H](O)CO)cc1)NC(=O)c1nc(Cl)c(N)nc1N [Compound 6] | – | – | 5.9 | 186 | – | – | – |
| N=C(NCCCCc1ccc(OCCN(CCCc2ccccc2)C[C@H](O)[C@@H](O)[C@H](O)[C@H](O)CO)cc1)NC(=O)c1nc(Cl)c(N)nc1N [Compound 5] | 0.2 | 10.0 | 6.6 | 118 | – | – | – |
| N=C(NCCCCc1ccc(OCC(O)CO)cc1)NC(=O)c1nc(Cl)c(N)nc1N (stereo not drawn) [Compound 1] | – | – | 7.4 | 105 | – | – | – |
| N=C(N)NCCOc1ccc(CCCCNC(=N)NC(=O)c2nc(Cl)c(N)nc2N)cc1 [Compound 2] | 0.2 | 10.0 | 10.2 | 77 | – | concentrated on the exterior cell surface | – |
